Results taken from patent US9913850B2, “Bile acids and biguanides as protease inhibitors for preserving the integrity of peptides in the gut” (AXCESS LIMITED, priority 2008, dated 2018).

Assays:
[1] = biological target: T1, Trypsin (Bos taurus, UniProt P00760); assay: Trypsin inhibition, fluorogenic substrate Z-L-arginine 4-methyl-7-coumarinylamide; type: biochemical, bovine; details: up to 30 minutes
T1 construct: Trypsin, from bovine pancreas; from tissue; host or cells: bovine pancreas
T1 sequence (P00760 24-246): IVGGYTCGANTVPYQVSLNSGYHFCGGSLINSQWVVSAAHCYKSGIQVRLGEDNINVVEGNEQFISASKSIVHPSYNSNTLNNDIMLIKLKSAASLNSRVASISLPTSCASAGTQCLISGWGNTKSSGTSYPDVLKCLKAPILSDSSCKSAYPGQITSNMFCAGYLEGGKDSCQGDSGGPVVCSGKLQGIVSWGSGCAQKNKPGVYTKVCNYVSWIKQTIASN
Method: (§1) The following Examples serve to illustrate the present invention, and should not be construed as limiting.
(§2) Trypsin, from bovine pancreas, was dissolved in Hanks Balanced Salt Solution (HBSS) at a concentration of 0.02 mg/ml. The substrate Z-L-arginine 4-methyl-7coumarinylamide was dissolved in HBSS at a concentration of 0.01 mg/ml, and sodium chenodeoxycholate was dissolved at a range of concentrations starting at 100 mg/ml. The assay was conducted in the wells of 96-well black plastic microplates, in which 20:1 of enzyme solution and 60:1 of bile salt were mixed together, and then 20:1 of substrate was added, with mixing, at the start of the reaction, which proceeded at room temperature for up to 30 minutes, with measurement at various intermediate time points.
Example 1 was repeated but with sodium deoxycholate instead of sodium chenodeoxycholate.
as §2, with “HBSS” for “Hanks Balanced Salt Solution (HBSS)”, “4-methyl-7-coumarinylamide” for “4-methyl-7coumarinylamide”, “ursodeoxycholate” for “chenodeoxycholate”, “50” for “100”, “100:1” for “60:1”, “37° C.” for “room temperature”
as §2, with “HBSS” for “Hanks Balanced Salt Solution (HBSS)”, “4-methyl-7-coumarinylamide” for “4-methyl-7coumarinylamide”, “glycodeoxycholate” for “chenodeoxycholate”, “100:1” for “60:1”, “37° C.” for “room temperature”
Example 5 was repeated but with sodium glycochenodeoxycholate instead of sodium ursodeoxycholate.
Example 6 was repeated but with sodium glycocholate instead of sodium glycodeoxycholate.
Example 9 was repeated but with trypsin (instead of chymotrypsin) from bovine plasma, Z-L-arginine 4-methyl-7-coumarinylamide as the substrate and metformin as the inhibitor.
Trypsin, from bovine pancreas, was dissolved in HBSS at a concentration of 0.02 mg/ml. The substrate Z-L-arginine 4-methyl-7-coumarinylamide was dissolved in HBSS at a concentration of 0.01 mg/ml, and phenformin was dissolved at 100 mg/ml. The assay was conducted in the wells of 96-well black plastic microplates, in which 20:1 of enzyme solution and 100:1 of bile salt were mixed together, and then 20:1 of substrate was added, with mixing, at the start of the reaction, which proceeded at 37° C. for up to 30 minutes, with measurement at various intermediate time points.

[2] = biological target: T2, chymotrypsin (Bos taurus, UniProt P00766); assay: Chymotrypsin inhibition, fluorogenic peptide substrates; type: biochemical, bovine
T2 construct: Chymotrypsin, from bovine plasma; from tissue
Method: as §1, §2
Example 1 was repeated but with chymotrypsin as the protease (instead of trypsin) and with glutaryl-L-phenylalanine 4-methyl-7-coumarinylamide as the substrate.
Example 2 was repeated but with sodium deoxycholate instead of sodium chenodeoxycholate.
Chymotrypsin, from bovine plasma, was dissolved in HBSS at a concentration of 0.02 mg/ml. The substrate Boc-β-benzyl-Asp-Pro-Arg-7-amido-4-methylcoumarin was dissolved in HBSS at a concentration of 0.01 mg/ml, and sodium chenodeoxycholate was dissolved at 100 mg/ml. The assay was conducted in the wells of 96-well clear plastic microplates, in which 20:1 of enzyme solution and 60:1 of bile salt were mixed together, and then 20:1 of substrate was added, with mixing, at the start of the reaction, which proceeded at 37° C. for up to 30 minutes, with measurement at various intermediate time points.

[3] = biological target: T3, Thrombin (Bos taurus, UniProt P00735); assay: Thrombin inhibition, chromogenic substrate N-Benzoyl-Phe-Val-Arg-p-nitroanilide; type: biochemical; details: Examples 10, 11; thrombin from bovine plasma; bile salt from 100 mg/ml; 37° C., up to 30 minutes; FIGS. 13, 14
T3 construct: Thrombin, from bovine plasma; from tissue; host or cells: bovine plasma
Method: Thrombin, from bovine plasma, was dissolved in HBSS at a concentration of 0.5 mg/ml. The substrate N-Benzoyl-Phe-Val-Arg-p-nitroanilide hydrochloride was dissolved in HBSS at a concentration of 0.5 mg/ml, and sodium chenodeoxycholate was dissolved at a range of concentrations starting at 100 mg/ml. The assay was conducted in the wells of 96-well clear plastic microplates, in which 50:1 of enzyme solution and 100:1 of bile salt were mixed together, and then 50:1 of substrate was added, with mixing, at the start of the reaction, which proceeded at 37° C. for up to 30 minutes, with measurement at various intermediate time points. The progress of the enzymatic reaction was assessed by measuring the appearance of reaction product (p-nitroaniline) colorimetrically using a wavelength of 405 nm on an Anthos reader 2001 from Anthos Labtec Instruments.
Example 10 was repeated but with sodium deoxycholate instead of sodium chenodeoxycholate.

[4] = test system: gut proteases; assay: Inhibition of gut proteases, general statement; type: biochemical; details: see FIGS. 5 and 6
[5] = Example 3, bile salt 25 mg/ml, room temperature, FIG. 5
[6] = Example 4, substrate glutaryl-L-phenylalanine 4-methyl-7-coumarinylamide, bile salt 25 mg/ml, FIG. 6
[7] = Examples 5-8, 13, trypsin from bovine pancreas, 37° C., FIGS. 7-11, 16

## C[C@H](CCC(=O)O)[C@H]1CC[C@H]2[C@@H]3[C@H](O)C[C@@H]4C[C@H](O)CC[C@]4(C)[C@H]3CC[C@]12C [chenodeoxycholate, sodium chenodeoxycholate]
[1]; Example 1, trypsin from bovine pancreas, bile salt from 100 mg/ml, room temperature, FIGS. 1, 2
  Inhibition of trypsin activity over time and dose response: Inhibition of enzyme activity
[2]; Example 2, substrate glutaryl-L-phenylalanine 4-methyl-7-coumarinylamide, bile salt from 100 mg/ml, FIGS. 3, 4
  Inhibition of chymotrypsin activity over time and dose response: Inhibition of enzyme activity
[2]; Example 9, chymotrypsin from bovine plasma, substrate Boc-β-benzyl-Asp-Pro-Arg-7-amido-4-methylcoumarin, 100 mg/ml, 37° C., FIG. 12
  Inhibition of chymotrypsin activity over time: Inhibition of enzyme activity
[3]
  Inhibition of thrombin activity over time: Inhibition of enzyme activity

## C[C@H](CCC(=O)O)[C@H]1CC[C@H]2[C@@H]3[C@H](O)C[C@@H]4C[C@H](O)CC[C@]4(C)[C@H]3C[C@H](O)[C@]12C [cholate, cholic acid]
[1]; [5]
  Inhibition of trypsin activity over time: do not inhibit trypsin
[4]
  Inhibitory effect on gut proteases: do not have this inhibitory effect
[2]; [6]
  Inhibition of chymotrypsin activity over time: do not inhibit chymotrypsin

## C[C@H](CCC(=O)[O-])[C@H]1CC[C@H]2[C@@H]3CC[C@@H]4C[C@H](O)CC[C@]4(C)[C@H]3C[C@H](O)[C@]12C.[Na+] [deoxycholate, sodium deoxycholate]
[1]; [5]
  Inhibition of trypsin activity over time: Inhibition of enzyme activity
[2]; [6]
  Inhibition of chymotrypsin activity over time: Inhibition of enzyme activity
[3]
  Inhibition of thrombin activity over time: Inhibition of enzyme activity

## C[C@H](CCC(=O)NCC(=O)O)[C@H]1CC[C@H]2[C@@H]3[C@H](O)C[C@@H]4C[C@H](O)CC[C@]4(C)[C@H]3CC[C@]12C [glycochenodeoxycholate, sodium glycochenodeoxycholate]
[1]; [7]
  Inhibition of trypsin activity over time: Inhibition of enzyme activity

## C[C@H](CCC(=O)NCC(=O)O)[C@H]1CC[C@H]2[C@@H]3[C@H](O)C[C@@H]4C[C@H](O)CC[C@]4(C)[C@H]3C[C@H](O)[C@]12C [glycocholate, sodium glycocholate]
[1]; [7]
  Inhibition of trypsin activity over time: Inhibition of enzyme activity

## C[C@H](CCC(=O)NCC(=O)[O-])[C@H]1CC[C@H]2[C@@H]3CC[C@@H]4C[C@H](O)CC[C@]4(C)[C@H]3C[C@H](O)[C@]12C.[Na+] [glycodeoxycholate, sodium glycodeoxycholate]
[1]; [7]
  Inhibition of trypsin activity over time: Inhibition of enzyme activity

## CN(C)C(=N)N=C(N)N [metformin]
[1]; Example 12, trypsin from bovine plasma, 37° C., FIG. 15
  Inhibition of trypsin activity over time: Inhibition of enzyme activity

## [H]/N=C(/N)N/C(=N/[H])NCCc1ccccc1 [phenformin]
[1]; [7]
  Inhibition of trypsin activity over time: Inhibition of enzyme activity

## C[C@H](CCC(=O)NCCS(=O)(=O)O)[C@H]1CC[C@H]2[C@@H]3[C@H](O)C[C@@H]4C[C@H](O)CC[C@]4(C)[C@H]3C[C@H](O)[C@]12C [taurocholate, taurocholic acid]
[1]; [5]
  Inhibition of trypsin activity over time: do not inhibit trypsin
[4]
  Inhibitory effect on gut proteases: do not have this inhibitory effect
[2]; [6]
  Inhibition of chymotrypsin activity over time: do not inhibit chymotrypsin

## C[C@H](CCC(=O)NCCS(=O)(=O)O)[C@H]1CC[C@H]2[C@@H]3CC[C@@H]4C[C@H](O)CC[C@]4(C)[C@H]3C[C@H](O)[C@]12C [taurodeoxycholate, taurodeoxycholic acid]
[1]; [5]
  Inhibition of trypsin activity over time: do not inhibit trypsin
[4]
  Inhibitory effect on gut proteases: do not have this inhibitory effect

## C[C@H](CCC(=O)O)[C@H]1CC[C@H]2[C@@H]3[C@@H](O)C[C@@H]4C[C@H](O)CC[C@]4(C)[C@H]3CC[C@]12C [ursodeoxycholate, sodium ursodeoxycholate]
[1]; [7]
  Inhibition of trypsin activity over time: Inhibition of enzyme activity
